Experimental data published in patent US8247211B2, “Glycopeptide antibiotics” (American Cyanamid Company, priority 2001, dated 2012).
Values after ≈ are worked out from the molar mass of the structure shown.

Legend:
Test in all cases: In vitro antibacterial evaluation: minimum inhibitory concentration (MIC), broth dilution method
Type in all cases: cell-based
Enterococcus sp. = system: Enterococcus sp.
Outline: (§1)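 Susceptibility determined by NCCLS-recommended broth dilution (M7-A2), Muller-Hinton II […]. Concentration span 64-0.06 μg/mL, inoculum 5×10^5 CFU/mL. Isolates include strains resistant to methicillin, penicillin and/or vancomycin.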

Escherichia coli = system: Escherichia coli
Outline: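 First, organisms are seeded at 5×10^5 CFU/mL into Muller-Hinton II […]. Next, antibiotic is applied across 64-0.06 μg/mL by broth dilution (NCCLS M7-A2). Finally, the lowest inhibitory concentration is recorded as MIC.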

Staphylococcus sp. = system: Staphylococcus sp.
Outline: as §1

Streptococcus sp. = system: Streptococcus sp.
Outline: as §1

[1] = broth dilution, 5×10^5 CFU/mL, 18 hours at 35° C.
[2] = 5×10^5 CFU/mL, 18 hours at 35° C.
[3] = strain ATCC 29213, broth dilution, 18 hours at 35° C.
[4] = strain GC 1131, broth dilution, 18 hours at 35° C.
[5] = strain GC 3051, broth dilution, 18 hours at 35° C.
[6] = strain GC 3053, broth dilution, 18 hours at 35° C.
[7] = strain GC 4541, broth dilution, 18 hours at 35° C.
[8] = strain GC 4542, broth dilution, 18 hours at 35° C.
[9] = strain GC 4543, broth dilution, 18 hours at 35° C.
[10] = strain GC 4544, broth dilution, 18 hours at 35° C.
[11] = strain GC 4545, broth dilution, 18 hours at 35° C.
[12] = strain GC 4546, broth dilution, 18 hours at 35° C.
[13] = strain GC 4547, broth dilution, 18 hours at 35° C.
[14] = strain GC 4548, broth dilution, 18 hours at 35° C.
[15] = strain GC 4549, broth dilution, 18 hours at 35° C.
[16] = strain GC 4551, broth dilution, 18 hours at 35° C.
[17] = strain GC 6257, broth dilution, 18 hours at 35° C.

CC(c1ccccc1)C1NC(=O)CNC(=O)C(CO)NC(=O)C(C(O)C2CNC(=N)N2C2OC(CO)C(O)C(O)C2O)NC(=O)C(C(O)C2CNC(=N)N2)NC(=O)C(Cc2ccc(OC3OC(CO)C(OC4OC5COC(c6cccc(O)c6)OC5C(O)C4O)C(O)C3O)cc2)NC1=O (stereo not drawn) [Example 136, Cyclo[glycyl-β-methylphenylalanyl-O-[4-O-[4,6-O-(3-hydroxybenzylidene)hexopyranosyl]-hexopyranosyl]tyrosyl-3-(2-iminoimidazolidin-4-yl)seryl-3-(3-hexopyranosyl-2-iminoimidazoliclin-4-yl)serylseryl]]
MIC Enterococccus avium (GC 4558) (Enterococcus sp.; [1]): 64 µg/mL (≈ 45.7 µM)
MIC Enterococccus faecalis (ATCC 29212) (Enterococcus sp.; [1]): >64 µg/mL
MIC Enterococccus faecalis (GC 2691) (Enterococcus sp.; [1]): >64 µg/mL
MIC Enterococccus faecalis (GC 3059) (Enterococcus sp.; [1]): >64 µg/mL
MIC Enterococccus faecalis (GC 4552) (Enterococcus sp.; [1]): >64 µg/mL
MIC Enterococccus faecalis (GC 4553) (Enterococcus sp.; [1]): >64 µg/mL
MIC Enterococccus faecalis (GC 4554) (Enterococcus sp.; [1]): >64 µg/mL
MIC Enterococccus faecalis (GC 6189) (Enterococcus sp.; [1]): 64 µg/mL (≈ 45.7 µM)
MIC Enterococccus faecium (GC 2243) (Enterococcus sp.; [1]): >64 µg/mL
MIC Enterococccus faecium (GC 4556) (Enterococcus sp.; [1]): 64 µg/mL (≈ 45.7 µM)
MIC Enterococccus faecium (GC 4557) (Enterococcus sp.; [1]): 8 µg/mL (≈ 5.72 µM)
MIC Enterococcus faecalis (GC 2242) (Enterococcus sp.; [1]): 64 µg/mL (≈ 45.7 µM)
MIC Escherichia coli (ATCC 25922) (Escherichia coli; [2]): >64 µg/mL
MIC Escherichia coli (GC 4559) (Escherichia coli; [2]): >64 µg/mL
MIC Escherichia coli (GC 4560) (Escherichia coli; [2]): 4 µg/mL (≈ 2.86 µM)
MIC Coagulase Negative Staphylococcus (GC 4547) (Staphylococcus sp.; [1]): 8 µg/mL (≈ 5.72 µM)
MIC Coagulase Negative Staphylococcus (GC 4548) (Staphylococcus sp.; [1]): 8 µg/mL (≈ 5.72 µM)
MIC Coagulase Negative Staphylococcus (GC 4549) (Staphylococcus sp.; [1]): 4 µg/mL (≈ 2.86 µM)
MIC Coagulase Negative Staphylococcus (GC 4551) (Staphylococcus sp.; [1]): 32 µg/mL (≈ 22.9 µM)
MIC Coagulase Negative Staphylococcus (GC 6257) (Staphylococcus sp.; [1]): 4 µg/mL (≈ 2.86 µM)
MIC Staphylococcus aureus-SMITH (GC 4543) (Staphylococcus sp.; [1]): 16 µg/mL (≈ 11.4 µM)
MIC Staphylococcus haemolyticus (GC 4546) (Staphylococcus sp.; [1]): 16 µg/mL (≈ 11.4 µM)
MIC Staphylococcus aureus (ATCC 29213) (Staphylococcus sp.; strain ATCC 29213): 16 µg/mL (≈ 11.4 µM)
MIC Staphylococcus aureus (ATCC 29213) (Staphylococcus sp.; [3]): 16 µg/mL (≈ 11.4 µM)
MIC Staphylococcus aureus (GC 1131) (Staphylococcus sp.; strain GC 1131): 16 µg/mL (≈ 11.4 µM)
MIC Staphylococcus aureus (GC 1131) (Staphylococcus sp.; [4]): 16 µg/mL (≈ 11.4 µM)
MIC Staphylococcus aureus (GC 3051) (Staphylococcus sp.; strain GC 3051): 16 µg/mL (≈ 11.4 µM)
MIC Staphylococcus aureus (GC 3051) (Staphylococcus sp.; [5]): 16 µg/mL (≈ 11.4 µM)
MIC Staphylococcus aureus (GC 3053) (Staphylococcus sp.; strain GC 3053): 32 µg/mL (≈ 22.9 µM)
MIC Staphylococcus aureus (GC 3053) (Staphylococcus sp.; [6]): 32 µg/mL (≈ 22.9 µM)
MIC Staphylococcus aureus (GC 4541) (Staphylococcus sp.; strain GC 4541): 8 µg/mL (≈ 5.72 µM)
MIC Staphylococcus aureus (GC 4541) (Staphylococcus sp.; [7]): 8 µg/mL (≈ 5.72 µM)
MIC Staphylococcus aureus (GC 4542) (Staphylococcus sp.; strain GC 4542): 16 µg/mL (≈ 11.4 µM)
MIC Staphylococcus aureus (GC 4542) (Staphylococcus sp.; [8]): 16 µg/mL (≈ 11.4 µM)
MIC Staphylococcus aureus-SMITH (GC 4543) (Staphylococcus sp.; [9]): 16 µg/mL (≈ 11.4 µM)
MIC Staphylococcus aureus (GC 4544) (Staphylococcus sp.; strain GC 4544): 16 µg/mL (≈ 11.4 µM)
MIC Staphylococcus aureus (GC 4544) (Staphylococcus sp.; [10]): 16 µg/mL (≈ 11.4 µM)
MIC Staphylococcus aureus (GC 4545) (Staphylococcus sp.; strain GC 4545): 16 µg/mL (≈ 11.4 µM)
MIC Staphylococcus aureus (GC 4545) (Staphylococcus sp.; [11]): 16 µg/mL (≈ 11.4 µM)
MIC Staphylococcus haemolyticus (GC 4546) (Staphylococcus sp.; [12]): 16 µg/mL (≈ 11.4 µM)
MIC Coagulase Negative Staphylococcus (GC 4547) (Staphylococcus sp.; [13]): 8 µg/mL (≈ 5.72 µM)
MIC Coagulase Negative Staphylococcus (GC 4548) (Staphylococcus sp.; [14]): 8 µg/mL (≈ 5.72 µM)
MIC Coagulase Negative Staphylococcus (GC 4549) (Staphylococcus sp.; [15]): 4 µg/mL (≈ 2.86 µM)
MIC Coagulase Negative Staphylococcus (GC 4551) (Staphylococcus sp.; [16]): 32 µg/mL (≈ 22.9 µM)
MIC Coagulase Negative Staphylococcus (GC 6257) (Staphylococcus sp.; [17]): 4 µg/mL (≈ 2.86 µM)
MIC Streptococcus agalactiae (GC 4564) (Streptococcus sp.; [1]): 8 µg/mL (≈ 5.72 µM)
MIC Streptococcus pneumoniae (GC 1894) (Streptococcus sp.; [1]): 1 µg/mL (≈ 0.715 µM)
MIC Streptococcus pneumoniae (GC 4565) (Streptococcus sp.; [1]): 4 µg/mL (≈ 2.86 µM)
MIC Streptococcus pneumonine (ATCC 6301) (Streptococcus sp.; [1]): 2 µg/mL (≈ 1.43 µM)
MIC Streptococcus pyogenes (GC 4563) (Streptococcus sp.; [1]): 8 µg/mL (≈ 5.72 µM)

CC(c1ccccc1)C1NC(=O)CNC(=O)C(CO)NC(=O)C(C(O)C2CNC(=N)N2C2OC(CO)C(O)C(O)C2O)NC(=O)C(C(O)C2CNC(=N)N2)NC(=O)C(Cc2ccc(OC3OC(CO)C(OC4OC5COC(c6ccc7ccccc7c6)OC5C(O)C4O)C(O)C3O)cc2)NC1=O (stereo not drawn) [Example 145, Cyclo[glycyl-β-methylphenylalanyl-O-[4-O-[4,6-O-(2-naphthylmethylene)hexopyranosyl]-hexopyranosyl]tyrosyl-3-(2-iminoimidazolidin-4-yl)seryl-3(3-hexopyranosyl-2-iminoimidazolidin-4-yl)serylseryl]]
MIC Enterococcus faecalis (ATCC 29212) (Enterococcus sp.; strain ATCC 29212): 1 µg/mL (≈ 0.698 µM)
MIC Enterococcus faecalis (GC 2242) (Enterococcus sp.; strain GC 2242): <0.5 µg/mL
MIC Enterococcus faecium (GC 2243) (Enterococcus sp.; strain GC 2243): 1 µg/mL (≈ 0.698 µM)
MIC Enterococcus faecalis (GC 2691) (Enterococcus sp.; strain GC 2691): 1 µg/mL (≈ 0.698 µM)
MIC Enterococcus faecalis (GC 3059) (Enterococcus sp.; strain GC 3059): 1 µg/mL (≈ 0.698 µM)
MIC Enterococcus faecalis (GC 4552) (Enterococcus sp.; strain GC 4552): 1 µg/mL (≈ 0.698 µM)
MIC Enterococcus faecalis (GC 4553) (Enterococcus sp.; strain GC 4553): 2 µg/mL (≈ 1.4 µM)
MIC Enterococcus faecalis (GC 4554) (Enterococcus sp.; strain GC 4554): 1 µg/mL (≈ 0.698 µM)
MIC Enterococcus faecium (GC 4556) (Enterococcus sp.; strain GC 4556): 1 µg/mL (≈ 0.698 µM)
MIC Enterococcus faecium (GC 4557) (Enterococcus sp.; strain GC 4557): 1 µg/mL (≈ 0.698 µM)
MIC Enterococcus avium (GC 4558) (Enterococcus sp.; strain GC 4558): 1 µg/mL (≈ 0.698 µM)
MIC Enterococcus faecalis (GC 6189) (Enterococcus sp.; strain GC 6189): 1 µg/mL (≈ 0.698 µM)
MIC Escherichia coli (ATCC 25922) (Escherichia coli; strain ATCC 25922): 64 µg/mL (≈ 44.6 µM)
MIC Escherichia coli (GC 4559) (Escherichia coli; strain GC 4559): 32 µg/mL (≈ 22.3 µM)
MIC Escherichi coli (GC 4560) (Escherichia coli; strain GC 4560): <0.5 µg/mL
MIC Coagulase Negative Staphylococcus (GC 4547) (Staphylococcus sp.; [1]): 1 µg/mL (≈ 0.698 µM)
MIC Coagulase Negative Staphylococcus (GC 4548) (Staphylococcus sp.; [1]): <0.5 µg/mL
MIC Coagulase Negative Staphylococcus (GC 4549) (Staphylococcus sp.; [1]): 1 µg/mL (≈ 0.698 µM)
MIC Coagulase Negative Staphylococcus (GC 4551) (Staphylococcus sp.; [1]): <0.5 µg/mL
MIC Coagulase Negative Staphylococcus (GC 6257) (Staphylococcus sp.; [1]): 0.5 µg/mL (≈ 0.349 µM)
MIC Staphylococcus aureus (ATCC 29213) (Staphylococcus sp.; [1]): 1 µg/mL (≈ 0.698 µM)
MIC Staphylococcus aureus (GC 1131) (Staphylococcus sp.; [1]): <0.5 µg/mL
MIC Staphylococcus aureus (GC 3051) (Staphylococcus sp.; [1]): 1 µg/mL (≈ 0.698 µM)
MIC Staphylococcus aureus (GC 3053) (Staphylococcus sp.; [1]): 1 µg/mL (≈ 0.698 µM)
MIC Staphylococcus aureus (GC 4541) (Staphylococcus sp.; [1]): <0.5 µg/mL
MIC Staphylococcus aureus (GC 4542) (Staphylococcus sp.; [1]): <0.5 µg/mL
MIC Staphylococcus aureus (GC 4544) (Staphylococcus sp.; [1]): 1 µg/mL (≈ 0.698 µM)
MIC Staphylococcus aureus (GC 4545) (Staphylococcus sp.; [1]): 1 µg/mL (≈ 0.698 µM)
MIC Staphylococcus aureus-SMITH (GC 4543) (Staphylococcus sp.; [1]): <0.5 µg/mL
MIC Staphylococcus haemolyticus (GC 4546) (Staphylococcus sp.; [1]): <0.5 µg/mL
MIC Staphylococcus aureus (ATCC 29213) (Staphylococcus sp.; [3]): 1 µg/mL (≈ 0.698 µM)
MIC Staphylococcus aureus (GC 1131) (Staphylococcus sp.; [4]): <0.5 µg/mL
MIC Staphylococcus aureus (GC 3051) (Staphylococcus sp.; [5]): 1 µg/mL (≈ 0.698 µM)
MIC Staphylococcus aureus (GC 3053) (Staphylococcus sp.; [6]): 1 µg/mL (≈ 0.698 µM)
MIC Staphylococcus aureus (GC 4541) (Staphylococcus sp.; [7]): <0.5 µg/mL
MIC Staphylococcus aureus (GC 4542) (Staphylococcus sp.; [8]): <0.5 µg/mL
MIC Staphylococcus aureus-SMITH (GC 4543) (Staphylococcus sp.; [9]): <0.5 µg/mL
MIC Staphylococcus aureus (GC 4544) (Staphylococcus sp.; [10]): 1 µg/mL (≈ 0.698 µM)
MIC Staphylococcus aureus (GC 4545) (Staphylococcus sp.; [11]): 1 µg/mL (≈ 0.698 µM)
MIC Staphylococcus haemolyticus (GC 4546) (Staphylococcus sp.; [12]): <0.5 µg/mL
MIC Coagulase Negative Staphylococcus (GC 4547) (Staphylococcus sp.; [13]): 1 µg/mL (≈ 0.698 µM)
MIC Coagulase Negative Staphylococcus (GC 4548) (Staphylococcus sp.; [14]): <0.5 µg/mL
MIC Coagulase Negative Staphylococcus (GC 4549) (Staphylococcus sp.; [15]): 1 µg/mL (≈ 0.698 µM)
MIC Coagulase Negative Staphylococcus (GC 4551) (Staphylococcus sp.; [16]): <0.5 µg/mL
MIC Coagulase Negative Staphylococcus (GC 6257) (Staphylococcus sp.; [17]): 0.5 µg/mL (≈ 0.349 µM)
MIC Streptococcus pneumoniae (ATCC 6301) (Streptococcus sp.; strain ATCC 6301): <0.5 µg/mL
MIC Streptococcus pneumoniae (GC 1894) (Streptococcus sp.; strain GC 1894): <0.5 µg/mL
MIC Streptococcus pyogenes (GC 4563) (Streptococcus sp.; strain GC 4563): 1 µg/mL (≈ 0.698 µM)
MIC Streptococcus agalactiae (GC 4564) (Streptococcus sp.; strain GC 4564): <0.5 µg/mL
MIC Streptococcus pneumoniae (GC 4565) (Streptococcus sp.; strain GC 4565): <0.5 µg/mL
